Legend:
[1] = target: T1, SthA (UdhA), soluble pyridine nucleotide transhydrogenase (Escherichia coli, UniProt P27306); assay: thioNADPH formation rate at […] nm; assay type: biochemical; conditions: activator; 1.0 mM NADH, 0.15 mM thioNADP+, 50 mM Tris pH 7.5, 30 °C
[2] = target: T1, SthA (UdhA), soluble pyridine nucleotide transhydrogenase; assay: absorbance spectrum of purified holoenzyme (A280/[…]); assay type: binding; conditions: bound prosthetic group copurified; 20 μM FAD in lysis buffer
[3] = target: T1, SthA (UdhA), soluble pyridine nucleotide transhydrogenase; assay: thioNADPH formation at […] nm, substrate-inhibition fit; assay type: biochemical; conditions: 50 mM Tris pH 7.5, 30 °C
[4] = target: SthA (UdhA), soluble pyridine nucleotide transhydrogenase (Escherichia coli, UniProt P27306, C45A); assay: stopped-flow flavin reduction at […] nm, kobs vs NADH; assay type: biochemical; conditions: apparent; reductive half-reaction, anaerobic, 25 °C, no NADP+; 50 mM Tris pH 7.5
SthA (UdhA), soluble pyridine nucleotide transhydrogenase (Escherichia coli, UniProt P27306, C45A), sequence (P27306 2-466 C45A): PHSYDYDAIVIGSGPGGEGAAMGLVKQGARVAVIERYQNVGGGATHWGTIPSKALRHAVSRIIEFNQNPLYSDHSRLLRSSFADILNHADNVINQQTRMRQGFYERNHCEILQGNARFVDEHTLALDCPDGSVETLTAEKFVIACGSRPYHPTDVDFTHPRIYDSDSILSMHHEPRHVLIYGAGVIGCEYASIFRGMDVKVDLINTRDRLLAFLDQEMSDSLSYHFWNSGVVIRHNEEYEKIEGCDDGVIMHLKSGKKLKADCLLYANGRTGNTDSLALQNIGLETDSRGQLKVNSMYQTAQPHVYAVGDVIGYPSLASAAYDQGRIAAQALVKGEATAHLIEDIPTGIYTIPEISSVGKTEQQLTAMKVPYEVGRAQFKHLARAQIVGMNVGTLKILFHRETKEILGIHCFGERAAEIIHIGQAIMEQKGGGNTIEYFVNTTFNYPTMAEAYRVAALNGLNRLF

[5] = target: T1, SthA (UdhA), soluble pyridine nucleotide transhydrogenase; assay: as above; assay type: biochemical; conditions: apparent; reductive half-reaction, anaerobic, 25 °C, no NADP+; 50 mM Tris pH 7.5
[6] = target: SthA (UdhA), soluble pyridine nucleotide transhydrogenase (Escherichia coli, UniProt P27306, T50C); assay: as above; assay type: biochemical; conditions: apparent; reductive half-reaction, anaerobic, 25 °C, no NADP+; 50 mM Tris pH 7.5
SthA (UdhA), soluble pyridine nucleotide transhydrogenase (Escherichia coli, UniProt P27306, T50C), sequence (P27306 2-466 T50C): as the sequence (P27306 2-466 C45A) above, with A44C, T49C counted along it

purified protein [7] = substrate: NC(=S)c1ccc[n+]([C@@H]2O[C@H](COP(=O)(O)OP(=O)(O)OC[C@H]3O[C@@H](n4cnc5c(N)ncnc54)[C@H](OP(=O)(O)O)[C@@H]3O)[C@@H](O)[C@H]2O)c1; assay: purified protein; assay type: biochemical, Escherichia coli; conditions: transhydrogenase reaction, 10.0 mM NADH, 50 mM Tris pH 7.5, 30 °C
purified protein [8] = substrate: NC(=O)C1=CN([C@@H]2O[C@H](COP(=O)(O)OP(=O)(O)OC[C@H]3O[C@@H](n4cnc5c(N)ncnc54)[C@H](OP(=O)(O)O)[C@@H]3O)[C@@H](O)[C@H]2O)C=CC1; assay: purified protein; assay type: biochemical, Escherichia coli; conditions: oxidase (uncoupling) reaction, 0.2 mM O2, no NAD(P)+, 50 mM Tris pH 7.5, 30 °C
[9] = target: the molecule itself; assay: dynamic light scattering; purified SthA (>1 mg/ml) in a microcuvette, DynaPro Nanostar, 20 °C, three independent purification batches; oligomer size from the hydrodynamic radius

Nc1ncnc2c1ncn2[C@@H]1O[C@H](COP(=O)(O)OP(=O)(O)O)[C@@H](O)[C@H]1O [ADP]
% activity at 5.0 mM [1]: ADP was the best reaction activator, followed by AMP and ATP, respectively.

Nc1ncnc2c1ncn2[C@@H]1O[C@H](COP(=O)(O)O)[C@@H](O)[C@H]1O [AMP]
% activity at 5.0 mM [1]: all three adenine nucleotides increased the rate of thioNADPH formation

Nc1ncnc2c1ncn2[C@@H]1O[C@H](COP(=O)(O)OP(=O)(O)OP(=O)(O)O)[C@@H](O)[C@H]1O [ATP]
% activity at 5.0 mM [1]: all three adenine nucleotides increased the rate of thioNADPH formation

Cc1cc2nc3c(=O)[nH]c(=O)nc-3n(C[C@H](O)[C@H](O)[C@H](O)COP(=O)(O)OP(=O)(O)OC[C@H]3O[C@@H](n4cnc5c(N)ncnc54)[C@H](O)[C@@H]3O)c2cc1C [FAD]
absorbance spectrum of purified holoenzyme (A280/450) [2]: absorbance spectrum of the purified protein indicated the presence of bound oxidized FAD

NC(=O)C1=CN([C@@H]2O[C@H](COP(=O)(O)OP(=O)(O)OC[C@H]3O[C@@H](n4cnc5c(N)ncnc54)[C@H](O)[C@@H]3O)[C@@H](O)[C@H]2O)C=CC1 [NADH]
KI ([3]; 0.5 mM thioNADP+): 12100 ± 2000 µM
Kd [4]: 300 ± 100 µM
Kd [5]: 88 ± 27 µM
Kd [6]: 227 ± 61 µM

NC(=S)c1ccc[n+]([C@@H]2O[C@H](COP(=O)(O)OP(=O)(O)OC[C@H]3O[C@@H](n4cnc5c(N)ncnc54)[C@H](OP(=O)(O)O)[C@@H]3O)[C@@H](O)[C@H]2O)c1 [thioNADP+]
KI ([3]; 10.0 mM NADH): 590 ± 260 µM

B1: SthA (UdhA), soluble pyridine nucleotide transhydrogenase (Escherichia coli K-12) (protein)
chain: PHSYDYDAIVIGSGPGGEGAAMGLVKQGARVAVIERYQNVGGGCTHWGTIPSKALRHAVSRIIEFNQNPLYSDHSRLLRSSFADILNHADNVINQQTRMRQGFYERNHCEILQGNARFVDEHTLALDCPDGSVETLTAEKFVIACGSRPYHPTDVDFTHPRIYDSDSILSMHHEPRHVLIYGAGVIGCEYASIFRGMDVKVDLINTRDRLLAFLDQEMSDSLSYHFWNSGVVIRHNEEYEKIEGCDDGVIMHLKSGKKLKADCLLYANGRTGNTDSLALQNIGLETDSRGQLKVNSMYQTAQPHVYAVGDVIGYPSLASAAYDQGRIAAQALVKGEATAHLIEDIPTGIYTIPEISSVGKTEQQLTAMKVPYEVGRAQFKHLARAQIVGMNVGTLKILFHRETKEILGIHCFGERAAEIIHIGQAIMEQKGGGNTIEYFVNTTFNYPTMAEAYRVAALNGLNRLF
Km (purified protein [7]): 120 ± 40 µM
kcat (purified protein [7]): 15.3 ± 3.1 s⁻¹
kcat/Km (purified protein [7]): 128000 M⁻¹ s⁻¹
Km (purified protein [8]): 91.8 ± 30.5 µM
kcat (purified protein [8]): 0.2 ± 0.03 s⁻¹
kcat/Km (purified protein [8]): 2200 M⁻¹ s⁻¹

B2: soluble pyridine nucleotide transhydrogenase SthA from Escherichia coli K-12 (enzyme, E. coli K-12, UniProt P27306 1-466, looked up)
chain: MPHSYDYDAIVIGSGPGGEGAAMGLVKQGARVAVIERYQNVGGGCTHWGTIPSKALRHAVSRIIEFNQNPLYSDHSRLLRSSFADILNHADNVINQQTRMRQGFYERNHCEILQGNARFVDEHTLALDCPDGSVETLTAEKFVIACGSRPYHPTDVDFTHPRIYDSDSILSMHHEPRHVLIYGAGVIGCEYASIFRGMDVKVDLINTRDRLLAFLDQEMSDSLSYHFWNSGVVIRHNEEYEKIEGCDDGVIMHLKSGKKLKADCLLYANGRTGNTDSLALQNIGLETDSRGQLKVNSMYQTAQPHVYAVGDVIGYPSLASAAYDQGRIAAQALVKGEATAHLIEDIPTGIYTIPEISSVGKTEQQLTAMKVPYEVGRAQFKHLARAQIVGMNVGTLKILFHRETKEILGIHCFGERAAEIIHIGQAIMEQKGGGNTIEYFVNTTFNYPTMAEAYRVAALNGLNRLF
notes: Soluble pyridine nucleotide transhydrogenase SthA (UdhA) of E. coli K-12; protomer with a calculated molar mass of around 54 kDa; No removal of the His tag is described; also called UdhA; soluble transhydrogenase
stoichiometry N [9]: 8
